Counter-ions that a name gives are not always drawn.
What was measured:
ear edema = experiment: Mouse Ear Edema Test (In Vivo), arachidonic acid; set-up: species or system CD-1 male mice; details: topical, 1 h, at 1 mg topically
Text: Invest. Dermatol. 80:48 (1983) and Hames, Opas and Bonney, "Arachidonic Acid Metabolites in Mouse Ear Edema" Advances in Inflammation Research, 11:57 (1986). […] CD-1 male mice weighing 15 to 25 g were employed, and they were designated as follows: (1) Control Group, in which no arachidonic acid or test compound was to be applied, (2) Arachidonic Acid-Treated Group, in which no test compound was to be applied, and (3) Treated Group, in which the test compound was to be applied first, followed by the application of arachidonic acid. In the case of the Group (3) animals, the test compound, dissolved in acetone, was applied to the dorsal surface of the right ear of the mouse with a 25-microliter pipettor, with the dose of the test compound being varied. After 0.5 hours in some cases and 4 hours in others, the arachidonic acid was topically applied in the same manner as above to the pretreated ear areas. In each case of arachidonic acid application, an amount of 0.5 mg dissolved in 25 microliters of acetone was used. After 1 hour, the mice were sacrificed by carbon dioxide inhalation. A 6 mm-diameter standard biopsy punch was used to obtain a uniform tissue sample from the ear of each mouse so treated, and the tissue samples were weighed to the nearest 0.1 mg. The percent inhibition of ear edema formation was calculated as follows: [formula]

Carrageenan pleurisy = experiment: Carrageenan Pleurisy Test (In Vivo); set-up: species or system male Lewis rats; details: Rattus norvegicus, po; at 100 mg/kg p.o; read-out: Rat Carrageenan Pleurisy % Inhib. of Exudate Volume
Method: The animals utilized in these studies were male Lewis rats (Charles River Breeding Laboratories) weighing between 230-250 g. […] At 5 or 24 hours after CG injection, the rats were killed by decapitation, exsanguinated, and the pleural cavity exposed by cutting the ribs on both sides of the sternum. The exudate fluid was removed from the pleural cavity with disposable plastic pipettes and its volume quantitated. The pleural cavity was then washed once with phosphate buffered saline containing fetal bovine serum (1:1) and the washings combined with the exudate. The total number of cells in the pleural cavity was quantitated using a Coulter Counter (Model ZM) adjusted to exclude any contaminating RBC. (Published in "Plant Flavonoids in Biology & Medicine: Biochemical, Pharmacological and Structure-Activity Relationships" p. 231-242 (1986) Alan R. Liss, Inc.)

[1] = molecular target: T1, Δ^5 -lipoxygenase from rat basophilic leukemia (RBL-1) cells (Rattus norvegicus, UniProt P12527); experiment: In vitro test for Δ^5-lipoxygenase inhibitors (5-HETE radioimmunoassay); type: biochemical; details: for IC50: RBL-1 5-LO, 5-HETE formation, read-out: Inhib. of Δ^5 Lipoxygenase IC50
T1 construct: The isolated cytosolic fraction was stored in liquid N2 for up to 8 weeks without loss of 5-LO enzyme activity; endogenous in cells; host or cells: RBL-1 cells (ATCC CRL 1378), 113,000×g supernatant (cytosol)
T1 sequence (P12527 1-673): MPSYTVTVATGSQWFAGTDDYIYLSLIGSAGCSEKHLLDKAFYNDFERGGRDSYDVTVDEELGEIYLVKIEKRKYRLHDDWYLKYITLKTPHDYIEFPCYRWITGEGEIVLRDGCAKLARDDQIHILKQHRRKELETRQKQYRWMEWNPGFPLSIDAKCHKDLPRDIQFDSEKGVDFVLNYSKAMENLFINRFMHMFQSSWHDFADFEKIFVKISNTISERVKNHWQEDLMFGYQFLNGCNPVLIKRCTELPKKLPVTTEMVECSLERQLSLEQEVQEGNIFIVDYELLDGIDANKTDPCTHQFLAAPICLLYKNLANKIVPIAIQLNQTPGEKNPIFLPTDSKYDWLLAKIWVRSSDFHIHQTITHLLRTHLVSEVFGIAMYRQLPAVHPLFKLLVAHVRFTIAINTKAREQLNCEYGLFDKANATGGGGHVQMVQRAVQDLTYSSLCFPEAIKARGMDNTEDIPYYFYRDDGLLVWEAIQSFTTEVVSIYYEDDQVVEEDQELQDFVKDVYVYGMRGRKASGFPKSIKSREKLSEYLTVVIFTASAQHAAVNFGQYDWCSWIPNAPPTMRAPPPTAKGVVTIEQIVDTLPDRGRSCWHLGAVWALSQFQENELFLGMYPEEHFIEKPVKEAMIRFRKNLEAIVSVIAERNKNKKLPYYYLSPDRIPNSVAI
Method: RBL-1 cells (CRL 1378) were obtained from the American Type Culture Collection, Rockville, MD. DMEM and glutamine were purchased from Flow Labs, McLean, Va. FBS (Gibco, Grand Island, N.Y.) was heat-inactivated for 1 hour at 56° C. Reagents for protein determinations were obtained from Biorad, Rockville Center, N.Y. Arachidonic acid (approx. 99%), ATP (disodium salt), BHT, dextran (clinical grade), tetrasodium EDTA, gelatin, gentamycin sulfate solution, reduced glutathione, 1 M HEPES buffer, indomethacin, NaCl, reduced NADPH, Trizma 7.2, and Trizma 8.5 were purchased from Sigma Chemical, St. Louis, Mo. CaCL2 dihydrate, Norit A charcoal, and citric acid monohydrate were obtained from Fisher Scientific, Pittsburgh, Pa. […] A synthetic 5-HETE standard was supplied by Dr. M. Rosenberger, Dept. of Medicinal Chemistry, Hoffmann La-Roche, Nutley, N.J.; [see Corey, E. J., and Hashimoto, S. (1981) Tet. […] Approximately 7-9 days after thawing, RBL-1 cells growing in log phase were seeded at a density of 7500 viable cells/ml in a closed 89-liter spinner flask. […] RBL-1 cells were harvested by centrifugation at 4° C. at 1500×g for 10 minutes and were washed 3 times with ice cold 0.05M tris-hCl, pH 7.2, tetrasodium EDTA (buffer 1). The cells were washed last in 0.05M Tris-HCl containing 14 μM indomethacin, 1 mM glutathione, 1.5 mM NaCl, and 1 mM tetrasodium EDTA (buffer 2), resuspended at a density of 5×108'/ml approximately 10 ml) and disrupted manually at 4° C. using a 40 ml Dounce (type A pestle) homogenizer. After 5 minutes of homogenization, 95% cell lysis was confirmed by phase contrast microscopy. The broken cells were diluted 1:2 with buffer 2 and centrifuged at 12,380×g for 10 minutes at 4° C. to pellet cellular debris and granules. The 12,380×g supernatant was centrifuged at 113,000×g for 60 minutes to pellet microsomes. The high-speed supernatant (5.9±0.48 mg/ml protein) was frozen immediately in 1 ml aliquots using a dry ice/acetone bath. The isolated cytosolic fraction was stored in liquid N2 for up to 8 weeks without loss of 5-LO enzyme activity. Compounds were dissolved at 25 mM concentration in DMSO, then diluted to final concentrations using 95% ethanol. For a typical enzyme assay, the partially purified 5-LO preparation was preincubated with drug or vehicle for 10 minutes at 30° C. The assay tubes were then transferred at a 37° C. water bath where they received arachidonic acid (8.25 μM final concentration) to initiate 5-LO activity. […] The samples were immediately cooled on ice and neutralized by dilution with 0.05M Tris-HCl, pH 8.5, which contained 25 mg/1 BHT. A boiled cytosol control was placed at the end of each assay to emasure non-enzymatic oxidation of arachidonic acid. […] Under the assay conditions described, the 5-LO catalyzed the conversion of arachidonic acid to 5-HPETE which, as a consequence of peroxidase activity, was reduced to 5-HETE. A specific radioimmunoassay was employed to quantitate the amount (pmoles) of 5-HETE formed during the enzyme reaction. To prepare the immunogen, Dr. M. Rosenberger (Dept. of Medicinal Chemistry) converted the racemic 5-HETE lactone (Corey, E. J., and Hashimoto, S. (1981) Tet. Letters, 22, 299-302) to its hydrazine derivative. The hydrazide was conjugated to thiolated Keyhole Limpet Hemocyanin (Young, […]., and Rokach, J. (1982) Prostaglandins 23, 603-613) using N-ethyl-maleimide as previously described for LTB4 by (Young, R., N, Zomboni, R. and Rokach, J. 91983) Prostaglandins, 26, 605-613). New Zealand White rabbits received multiple intradermal injections on their backs with […] conjugate emulsified in complete Freund's adjuvant. A schedule of injections reported by Salmon (Salmon, J. A. (1978) Prostaglandins, 15, 383-397) was followed. After the monthly i.p. booster injections, blood was obtained from the marginal ear vein 5-7 days later and assessed for antibody titer. […]

SMILES | inhibition in vivo at 1 mg (ear edema) [%] | inhibition in vivo at 100 mg/kg (Carrageenan pleurisy) [%] | IC50 [1] [nM] | inhibition at 0.1 µM ([1]; read-out: Inhib. of Δ^5 Lipoxygenase, % inhibition at 0.1 μM) [%]
CCCc1cc(C(=O)O)ccc1OCCCCCCc1cccc(O)c1O [4-[6-(2,3-Dihydroxyphenyl)hexyloxy]-3-propylbenzoic acid] | 52 | 0 | 20 | 
CCCc1c(OCCCCCCc2cccc(O)c2O)ccc(C(=O)OCCN(CC)CC)c1O [4-[6-(2,3-Dihydroxyphenyl)hexyloxy]-2-hydroxy-3-propylbenzoic acid [2-(diethylamino)ethyl]ester hydrochloride] | 48 | 42 | 670 | 
CCCc1cc(C(=O)O)cc(CCC)c1OCCCCCCc1cccc(O)c1O [4-[6-(2,3-Dihydroxyphenyl)hexyloxy]-3,5-dipropylbenzoic acid] | 59 |  | 460 | 
CCCc1c(OCCCCCCCCc2cccc(O)c2O)ccc(C(C)=O)c1O [1-[2-hydroxy-4-[8-(2,3-dihydroxyphenyl)octyloxy]-3-propylphenyl]ethanone] | 0 | 0 |  | 95

Reference: patent US5025036A, “Catechol carboxylic acids” (Hoffmann-La Roche Inc., priority 1989, dated 1991)
